Measurements reported in US9233143B2, “Medicinal agent for preventing exacerbation of malignant tumor, comprising combination of natriuretic peptide receptor GC-A and GC-B agonists” (National Cerebral and Cardiovascular Center, priority 2011, dated 2016).

How the values were obtained:
[1] = test system: tumor cells; conditions: reports by Vesely et al.; cited from earlier work
[2] = test system: A549 cells; test: Changes in the intracellular cGMP level in response to natriuretic peptide stimulus, A549 cells; format: cell-based, human; conditions: 1×10^−11 M to 1×10^−6 M, 10 minutes, FIG. 1A
Experimental: Lung adenocarcinoma cell line, A549 cells, was obtained from ATCC (Manassas, Va.). The cells were cultured in DMEM culture medium (Invitrogen, Carlsbad, Va.) containing 10% FCS under 5% CO2 at 37° C. The amounts of the culture medium were 1.5 mL for each well of a 6-well dish, 400 μL for each well of a 24-well dish, and 150 μL for each well of a 96-well dish. In the Examples below, unless otherwise stated, the same culture medium and culture conditions were adopted.
(§1) The A549 cells were cultured in a 24-well dish at 4×10^4 cells/well, and the culture medium was replaced with DMEM culture medium free from FCS the next day. The CAFs were cultured in a 24-well dish at 1×10^4 cells/well, and the culture medium was replaced with DMEM culture medium containing 1% FCS the next day.
(§2) To these culture media, solutions of hANP, hBNP, and hCNP-22 (final concentration: ten-fold serial dilution from 1×10^−11 M to 1×10^−6 M, the same amount of physiological saline was used as a control) were separately added. After 10 minutes had passed, 400 μL of cooled 70% ethanol (containing 0.1 N hydrochloric acid) was added, and ultrasonication was performed for a short time. The treated solution was lyophilized, and the cGMP level was measured using Cyclic GMP Assay kit (made by Yamasa Corp.).

[3] = test system: cancer-associated fibroblasts (CAFs); test: Changes in the intracellular cGMP level in response to natriuretic peptide stimulus, CAFs; format: cell-based, human; conditions: 1×10^−11 M to 1×10^−6 M, 10 minutes, FIG. 1B
Experimental: For obtaining CAFs (cancer-associated fibroblasts), tissue harvested from a patient having lung cancer surgery was subjected to primary culture after the consent of the patient was obtained. The cells were then cultured in DMEM culture medium containing 10% FCS under 5% CO2 at 37° C., and the cells of the 5th and earlier passages were used.
as §1, §2

[4] = test system: A549 cells; test: EMT induced by TGF-β1 in A549 cells (morphology, quantitative RT-PCR); format: cell-based, human; conditions: for effect of suppressing EMT: concentration of 1 μM, summary of Example 2
Experimental: Using a 6-well dish, the A549 cells were cultured at 1×10^5 cells/well, and the culture medium was replaced with DMEM culture medium free from FBS the next day. After 24 hours of culture, the cells were used in the following experiment.
An ANP group (a hANP solution was added (final concentration: 1 μM)) and a control group (the same amount of physiological saline was added) were prepared, and after 2 hours from the addition (of the hANP solution or the physiological saline) to the A549 cells, TGF-β1 was added so that the final concentration would be 0.125, 0.25, 0.5, 1.0, and 2.0 ng/mL. After 24 hours had passed, the morphological change in the cells was observed under a microscope and photographed (FIG. 2).
Then, total RNA was recovered from the above prepared ANP group and control group using TRIZOL total RNA isolation reagent (made by Invitrogen), cDNA was synthesized using reverse transcriptase, and the mRNA levels of E-cadherin, N-cadherin, VEGF-A, PDGF-B, TNF-α, and IL-6 were measured by quantitative RT-PCR. The mRNA level of each intended gene was calculated as the relative ratio of the mRNA amount of the gene to that of the housekeeping gene 36B4 measured at the same time. In the Examples below, unless otherwise stated, the mRNA levels were obtained through the same calculation.
It is known that in EMT, the expression of E-cadherin decreases while the expression of N-cadherin increases. The expression ratio of the two kinds of cadherin (N-cad/E-cad) is considered to be useful as an indicator of the degree of EMT.

[5] = test system: CAFs; test: Production of cancer exacerbation factors by CAFs under TGF-β1 stimulus (quantitative RT-PCR); format: cell-based, human; conditions: test substance 1 μM, TGF-β1 0.125-2.0 ng/mL, 24 hours, mRNA level, FIG. 5
Experimental: Using a 6-well dish, the CAFs were cultured at 5×10^4 cells/well, and the culture medium was replaced with DMEM culture medium containing 1% FBS the next day. After 24 hours of culture, the cells were used in the following experiment.
A CNP group (a hCNP-22 solution was added (final concentration: 1 μM)) and a control group (the same amount of physiological saline was added) were prepared, and after 2 hours from the addition (of the hCNP-22 solution or the physiological saline) to the CAFs, TGF-β1 was added so that the final concentration would be 0.125, 0.25, 0.5, 1.0, and 2.0 ng/mL. After 24 hours had passed, total RNA was recovered using TRIZOL total RNA isolation reagent, cDNA was synthesized using reverse transcriptase, and the mRNA levels of VEGF-A, TGF-β1, TNF-α, and IL-6 were measured by quantitative RT-PCR.

[6] = test system: A549 cells co-cultured with CAFs; test: Co-culture system of cancer cells and CAFs (mRNA of the A549 cells); format: cell-based, human; conditions: each test substance 1 μM
Experimental: In a 6-well dish, the A549 cells were cultured at 1×10^5 cells/well. The culture medium was replaced with DMEM culture medium free from FBS the next day, and the cells were further cultured for 24 hours. In a 6-well dish having a cell culture insert (1.0 μm pore size, made by BD), the CAFs were cultured at 5×10^4 cells/well. The culture medium was replaced with DMEM culture medium containing 1% FBS the next day, and the cells were further cultured for 24 hours. To each culture medium of the two kinds of cells, test substances were separately added to prepare test substance addition groups. Control groups with no test substance were also prepared. After two hours of culture, these were subjected to co-culture. The test substance addition groups were ANP groups containing hANP at a final concentration of 1 μM, CNP groups containing hCNP-22 at a final concentration of 1 μM, and ANP+CNP groups containing both hANP and hCNP-22 each at a final concentration of 1 μM. Each of the groups were prepared by adding the test substance to each culture medium of the two kinds of cells.
On the 6-well dish of A549 cells treated as above, the above cell culture insert with the CAFs was placed to prepare a co-culture experimental model where only the culture media could pass through the cell culture insert. After 24, 48, and 72 hours of culture, total RNA of the A549 cells only was recovered, cDNA was synthesized, and the mRNA levels of E-cadherin, N-cadherin, VEGF-A, PDGF-B, and IL-6 were measured by quantitative RT-PCR (FIGS. 6 to 8). The experiment using ANP alone (ANP groups: FIG. 6), the experiment using CNP alone (CNP groups: FIG. 7), and the experiment using ANP and CNP in combination (ANP+CNP group: FIG. 8) were independently conducted, where control groups were separately set for each experiment.

[7] = test system: A549 cells and CAFs; test: Mouse models having transplanted cancer cells and CAFs, administration started after tumor tissue was established (Example 6); format: in vivo; conditions: hCNP-22 alone 2.5 μg/kg/min, started 2 weeks after transplantation, 4 weeks, FIG. 10
Experimental: In this Example and Example 6, 5-week-old male immunodeficient mice (KSN mice, Japan SLC, Inc.) were used. The osmotic pumps used were MODEL2004 (for 28-day administration) made by ALZET (Cupertino, Calif.). A mixed suspension of the A549 cells and the CAFs was prepared using DMEM free from FBS so as to contain the A549 cells at 1×10^6 cells/100 μL and the CAFs at 0.5×10^6 cells/100 μL. The mixed suspension in an amount of 100 μL per mouse was subcutaneously injected in the back of the immunodeficient mice. […] After 2 weeks of observation from the injection of the cell suspension, the mice to which the mixed suspension had been injected were randomly divided into 4 groups (control group, ANP group, CNP group, and ANP+CNP group), and an osmotic pump appropriately adjusted for each group as shown below was subcutaneously implanted to start administration. • Control group and A549 group: physiological saline was administered • ANP group: hANP was administered at 0.5 μg/kg/min • CNP group: hCNP-22 was administered at 2.5 μg/kg/min • ANP+CNP group: hANP was administered at 0.5 μg/kg/min and hCNP-22 was administered at 2.5 μg/kg/min Observation was further continued for 4 weeks after the start of administration, the tumor size at the cell injection site was measured weekly, and tumor volume was calculated in the same way as in Example 5 (FIG. 10).

[8] = A549 cells, test substance 1 μM, mRNA level, FIG. 3

long acting natriuretic peptide: peptide in reports by Vesely et al., sequence not likely to contribute to binding to GC-A (NPMYNAVSNADLMDFKNLLDHLEEKMPLED; Long-acting natriuretic peptide; UniProt P01160 26-55, looked up)
growth-suppressing activity on tumor (cancer) cells [1]: the same or stronger growth-suppressing activity

hBNP: 32-amino acid BNP of human origin (SPKMVQGSGCFGRKMDRISSSSGLGCKVLRRH: SEQ ID NO: 3), GC-A agonist
intracellular cGMP level of the A549 cells [2]: increased the intracellular cGMP level of the A549 cells in a concentration-dependent manner | cGMP level of the CAFs [3]: did not show such an action | effect of suppressing EMT [4]: significantly suppressing EMT | gene expression of the growth factors (VEGF-A, TGF-β1) and the inflammatory cytokines (TNF-α, IL-6) increased by the TGF-β1 stimulus in CAFs [5]: did not show any effect on CAFs | growth-suppressing activity on tumor (cancer) cells [1]: does not have such a growth-suppressing activity

kalliuretic peptide: peptide in reports by Vesely et al., sequence not likely to contribute to binding to GC-A (SSDRSALLKSKLRALLTAPR; Kaliuretic peptide; UniProt P01160 104-123, looked up)
growth-suppressing activity on tumor (cancer) cells [1]: the same or stronger growth-suppressing activity

vessel dilator: peptide in reports by Vesely et al., sequence not likely to contribute to binding to GC-A (EVVPPQVLSEPNEEAGAALSPLPEVPPWTGEVSPAQR; Vessel dilator; UniProt P01160 56-92, looked up)
growth-suppressing activity on tumor (cancer) cells [1]: the same or stronger growth-suppressing activity

hCNP-22: 22-amino acid CNP-22 of human origin (GLSKGCFGLKLDRIGSMSGLGC: SEQ ID NO: 7), GC-B agonist (GLSKGCFGLKLDRIGSMSGLGC; listed as Homo sapiens)
intracellular cGMP level of the A549 cells [2]: did not show such increase | cGMP level of the CAFs [3]: increased the cGMP level of the CAFs in a concentration-dependent manner | morphological change in the cells associated with EMT induced by the TGF-β1 stimulus ([4]; A549 cells, test substance 1 μM, 24 hours after TGF-β1, FIG. 2): the same as those of the control | gene expression of the growth factors (VEGF-A, PDGF-B) and the inflammatory cytokines (TNF-α, IL-6) increased by EMT induced by the TGF-β1 stimulus ([4]; A549 cells, test substance 1 μM, TGF-β1 0.125-2.0 ng/mL, 24 hours, mRNA level, FIG. 3): the same as those of the control | decrease in the expression of E-cadherin induced by the TGF-β1 stimulus [4, 8]: the same as those of the control | increase in the expression of N-cadherin induced by the TGF-β1 stimulus [4, 8]: the same as those of the control | effect of suppressing EMT [4]: did not show such an effect at all | gene expression of the growth factors (VEGF-A, TGF-β1) and the inflammatory cytokines (TNF-α, IL-6) increased by the TGF-β1 stimulus in CAFs [5]: significantly suppressed | gene expression of the growth factors (VEGF-A, PDGF-B) and inflammatory cytokine (IL-6) increased in the co-culture ([6]; A549 cells co-cultured with CAFs 24, 48, 72 hours, FIGS. 6 to 8): could not suppress | expression ratio of N-cadherin/E-cadherin (N-cad/E-cad), indicator of EMT, in the co-culture ([6]; A549 cells co-cultured with CAFs, FIGS. 6D, 7D, 8D): did not show any effect | tumor growth as compared with the control group [7]: showed an effect of tumor growth suppression
